Reference: patent publication US11066369B2, “N-(pyridin-2-yl)pyridine-sulfonamide derivatives and their use in the treatment of disease” (Novartis AG, priority 2016, dated 2021)
Where a name gives a salt, the structure may show the parent alone.

Molecular target: T1, horseradish peroxidase (HRP) tagged delF508-CFTR (Homo sapiens, UniProt P13569, DEL508-508)
T1 construct: expressed in transfected cells
Assay: Measurement of delF508-CFTR-HRP surface expression in CFBE41o- cells;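 for DelF508-CFTR-HRP Amax %: percent efficacy relative to reference corrector lumacaftor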
Type: cell-based
Conditions: delF508-CFTR-HRP surface expression, CFBE41o- cells; for Emax: read-out: DelF508-CFTR-HRP Amax %; for EC50: read-out: DelF508-CFTR-HRP EC50
Excerpt: Measurement of delF508-CFTR-HRP Surface Expression in CFBE41o-Cells
This assay quantifies the cell surface expressions of the mutant CFTR channel using an extracellular HRP tag.
A cellular assay was developed to measure surface expression of horseradish peroxidase (HRP) tagged delF508-CFTR in the human bronchial epithelial immortalized CFBE41o-cell line (Phuan, P. W., et al, (2014) Molecular Pharmacology 86:42-51). Specifically, the HRP sequence was inserted into the fourth extracellular loop of delF508-CFTR and stably expressed in CFBE41o-cells. Cells were seeded in 384 well plate at a density of 5000 cells/well and incubated at 37° C. for 12 to 24 hours in medium (Gibco MEM #11095, 10% FBS, 10 mM HEPES, […], 200 μg/mL G418, 3 μg/mL Puromycin). The delF508-CFTR-HRP expression was induced with 500 ng/mL doxycycline (Sigma D-9891, dissolved in H2O and sterile filtered) in medium and the cells were incubated at 37° C. for 48h. Old medium was removed and fresh medium was added containing 500 ng/mL doxycycline and unknown test compound at required test concentration in DMSO, not exceeding 0.5% final DMSO concentration. The highest concentration tested was 10 μM with a 10-point concentration response curve using a 3-fold dilution. After addition of compounds, the cells were incubated for 24h at 37° C. On the final day, cells were washed four times in PBS containing 1 mM MgCl2 and 0.1 mM CaCl2. HRP-Substrate (SuperSignal ELISA Pico, Fisher #37069) 20 μl/well was added and the luminescence signal was determined (Viewlux, Perkin Elmer). Light was emitted upon addition of exogenous HRP-Substrate only when delF508-CFTR-HRP reached the cell surface and the HRP tag was accessible to the HRP-Substrate (note: HRP-Substrate cannot cross the lipid bilayer to reach delF508-CFTR-HRP misfolded within the cell).
The median activity for the lowest concentration of the compounds on each assay plate was calculated and this value was used to normalize the signal for each well on the respective plate. Three replicates at each concentrations for every compound were run to determine one EC50. The median value was determined and used to calculate compound activities as described below. Effective half maximal values (EC50) were calculated for each compound by performing logistic regression on measured dose-response data points using the equation:
[formula] where “Y” is the observed activity, “Bottom” is the lowest observed value, “Top” is the highest observed value, and the “Hill coefficient” gives the largest absolute value of the slope. The curve fitting is carried out by a curve fitting program implemented at GNF using Matlab (Mathworks).
The dose response curves also were used to calculate Fold Change (FC) using the equation: […]
Compound efficacy relative to the reference compound 3-(6-(1-(2,2-difluorobenzo[d][1,3]dioxol-5-yl)cyclopropane-1-carboxamido)-3-methylpyridin-2-yl)benzoic acid was determined using the following formula: […]

T1 sequence (P13569 with tags, fused parts or gaps DEL508-508): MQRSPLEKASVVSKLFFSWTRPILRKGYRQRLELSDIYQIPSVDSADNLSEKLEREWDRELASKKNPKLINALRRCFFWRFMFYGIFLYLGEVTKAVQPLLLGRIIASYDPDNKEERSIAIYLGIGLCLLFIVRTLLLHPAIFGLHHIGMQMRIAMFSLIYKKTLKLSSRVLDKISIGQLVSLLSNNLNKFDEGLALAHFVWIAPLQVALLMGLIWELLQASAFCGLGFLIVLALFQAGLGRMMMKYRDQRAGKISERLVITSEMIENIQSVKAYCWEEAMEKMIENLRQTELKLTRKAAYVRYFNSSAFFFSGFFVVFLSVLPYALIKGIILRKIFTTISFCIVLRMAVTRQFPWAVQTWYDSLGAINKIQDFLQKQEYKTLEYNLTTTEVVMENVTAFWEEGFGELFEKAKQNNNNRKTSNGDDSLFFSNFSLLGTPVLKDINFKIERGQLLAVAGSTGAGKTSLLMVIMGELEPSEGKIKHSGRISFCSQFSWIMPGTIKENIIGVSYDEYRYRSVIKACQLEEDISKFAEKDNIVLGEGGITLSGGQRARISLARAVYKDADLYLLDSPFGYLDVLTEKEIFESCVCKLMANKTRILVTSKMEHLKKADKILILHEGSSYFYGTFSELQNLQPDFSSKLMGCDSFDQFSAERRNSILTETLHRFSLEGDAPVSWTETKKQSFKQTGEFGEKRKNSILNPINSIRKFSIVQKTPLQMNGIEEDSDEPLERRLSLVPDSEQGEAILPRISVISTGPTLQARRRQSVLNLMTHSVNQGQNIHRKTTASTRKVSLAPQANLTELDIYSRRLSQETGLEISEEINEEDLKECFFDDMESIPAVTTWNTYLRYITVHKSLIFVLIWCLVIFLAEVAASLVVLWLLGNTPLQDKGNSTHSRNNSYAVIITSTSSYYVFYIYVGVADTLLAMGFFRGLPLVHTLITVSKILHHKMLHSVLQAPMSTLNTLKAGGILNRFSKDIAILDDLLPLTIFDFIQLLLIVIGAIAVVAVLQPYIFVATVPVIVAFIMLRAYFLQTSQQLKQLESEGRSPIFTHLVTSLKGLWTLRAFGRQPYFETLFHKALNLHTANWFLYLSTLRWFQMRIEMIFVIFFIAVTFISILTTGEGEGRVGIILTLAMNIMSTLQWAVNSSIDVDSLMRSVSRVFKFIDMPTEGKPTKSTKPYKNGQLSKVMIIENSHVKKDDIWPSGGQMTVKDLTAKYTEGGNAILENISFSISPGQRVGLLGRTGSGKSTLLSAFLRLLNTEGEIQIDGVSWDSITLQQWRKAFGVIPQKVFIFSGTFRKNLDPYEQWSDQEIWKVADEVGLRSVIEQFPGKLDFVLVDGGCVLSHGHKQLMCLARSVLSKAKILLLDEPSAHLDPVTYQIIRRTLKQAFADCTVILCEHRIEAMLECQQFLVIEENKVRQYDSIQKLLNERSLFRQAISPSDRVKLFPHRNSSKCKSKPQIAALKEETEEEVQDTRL

Structure (SMILES) | Emax [%] | EC50 [nM]
Cc1cc(NS(=O)(=O)c2cccc(N)n2)nc(-c2c(C)cccc2C)c1 [Example 63, 6-amino-N-(6-(2,6-dimethylphenyl)-4-methylpyridin-2-yl)pyridine-2-sulfonamide] | 226 | 2690
Cc1ccc(C#N)cc1-c1nc(NS(=O)(=O)c2ccnc(N)c2)ccc1C(F)(F)F [Example 64, 2-amino-N-(6-(5-cyano-2-methylphenyl)-5-(trifluoromethyl)pyridin-2-yl)pyridine-4-sulfonamide] | 223 | 1960
Nc1cccc(S(=O)(=O)Nc2ccc(Cl)c(-c3ccccc3C(F)F)n2)n1 [Example 65, 6-amino-N-(5-chloro-6-(2-(difluoromethyl)phenyl)pyridin-2-yl)pyridine-2-sulfonamide] | 220 | 1540
Nc1cccc(S(=O)(=O)Nc2ccc(Cl)c(-c3ccccc3F)n2)n1 [Example 69, 6-amino-N-(5-chloro-6-(2-fluorophenyl)pyridin-2-yl)pyridine-2-sulfonamide] | 199 | 3300
Cc1cc(F)ccc1-c1nc(NS(=O)(=O)c2ccc(N)nc2)ccc1Cl [Example 71, 6-amino-N-(5-chloro-6-(4-fluoro-2-methylphenyl)pyridin-2-yl)pyridine-3-sulfonamide] | 196 | 3550
COc1ccccc1-c1nc(NS(=O)(=O)c2cccc(N)n2)ccc1Cl [Example 76, 6-amino-N-(5-chloro-6-(2-methoxyphenyl)pyridin-2-yl)pyridine-2-sulfonamide] | 156 | 2300
Cc1ccc(NS(=O)(=O)c2cccc(N)n2)nc1-c1ccccc1Cl [Example 77, 6-amino-N-(6-(2-chlorophenyl)-5-methylpyridin-2-yl)pyridine-2-sulfonamide Hydrochloride] | 152 | 2550
Nc1cccc(S(=O)(=O)Nc2ccc(C(F)(F)F)c(-c3cccc(C(F)(F)F)c3)n2)n1 [Example 79, 6-amino-N-(5-(trifluoromethyl)-6-(3-(trifluoromethyl)phenyl)pyridin-2-yl)pyridine-2-sulfonamide] | 141 | 2300
Cc1cccc(C)c1-c1nc(NS(=O)(=O)c2ccc(Br)c(N)n2)ccc1Cl [Example 81, 6-amino-5-bromo-N-(5-chloro-6-(2,6-dimethylphenyl)pyridin-2-yl)pyridine-2-sulfonamide] | 127 | 1980

The remaining compounds from weak to strong by EC50, led by results:

Emax [%] | EC50 [nM] | Structure (SMILES)
193 | 3410 | COc1ccc(NS(=O)(=O)c2cccc(N)n2)nc1-c1c(C)cccc1C [Example 72, 6-amino-N-(6-(2,6-dimethylphenyl)-5-methoxypyridin-2-yl)pyridine-2-sulfonamide hydrochloride]
215 | 3070 | Cc1ccccc1-c1nc(NS(=O)(=O)c2cccc(N)n2)ccc1C1CC1 [Example 66, 6-amino-N-(5-cyclopropyl-6-(o-tolyl)pyridin-2-yl)pyridine-2-sulfonamide]
158 | 2840 | Cc1ccccc1-c1nc(NS(=O)(=O)c2cccc(N)n2)ccc1C [Example 75, 6-amino-N-(5-methyl-6-(o-tolyl)pyridin-2-yl)pyridine-2-sulfonamide]
141 | 2730 | Nc1cccc(S(=O)(=O)Nc2ccc(Cl)c(-c3c(F)ccc(F)c3F)n2)n1 [Example 78, 6-amino-N-(5-chloro-6-(2,3,6-trifluorophenyl)pyridin-2-yl)pyridine-2-sulfonamide]
197 | 2640 | Cc1ccccc1-c1nc(NS(=O)(=O)c2cccc(N)n2)ccc1F [Example 70, 6-amino-N-(5-fluoro-6-(o-tolyl)pyridin-2-yl)pyridine-2-sulfonamide]
209 | 2420 | Cc1cccc(C)c1-c1cccc(NS(=O)(=O)c2cccc(N)n2)n1 [Example 68, 6-amino-N-(6-(2,6-dimethylphenyl)pyridin-2-yl)pyridine-2-sulfonamide]
